Measurements taken from US9133204B2, “5-membered heterocyclic amides and related compounds” (H. Lundbeck A/S, priority 2007, dated 2015).

molecular target: T1, P2X7 receptor (Homo sapiens, UniProt Q99572); experiment: High throughput P2X7 calcium mobilization assay (Example 4A); assay type: cell-based; details: SH-SY5Y cells; 50% decrease in fluorescence response of cells exposed to 80 μM BzATP; Table I
T1 construct: host or cells: SH-SY5Y
T1 sequence (Q99572 1-595): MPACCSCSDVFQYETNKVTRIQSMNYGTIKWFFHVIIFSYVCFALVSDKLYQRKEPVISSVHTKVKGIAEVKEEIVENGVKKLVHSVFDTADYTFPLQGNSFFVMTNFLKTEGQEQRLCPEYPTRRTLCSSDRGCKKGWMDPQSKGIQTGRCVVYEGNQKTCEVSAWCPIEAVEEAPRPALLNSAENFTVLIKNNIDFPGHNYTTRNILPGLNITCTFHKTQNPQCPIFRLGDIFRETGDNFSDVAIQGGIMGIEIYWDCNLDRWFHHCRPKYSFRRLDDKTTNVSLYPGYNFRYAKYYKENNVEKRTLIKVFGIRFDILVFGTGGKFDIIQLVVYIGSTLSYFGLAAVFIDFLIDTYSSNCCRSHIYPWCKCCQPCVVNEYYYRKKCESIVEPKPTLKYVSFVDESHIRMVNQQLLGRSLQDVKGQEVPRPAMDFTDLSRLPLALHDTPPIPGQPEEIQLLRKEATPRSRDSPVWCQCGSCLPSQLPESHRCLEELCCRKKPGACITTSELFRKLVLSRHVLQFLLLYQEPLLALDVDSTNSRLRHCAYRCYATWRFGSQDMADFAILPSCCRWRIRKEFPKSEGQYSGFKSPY
How it was run: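 SH-SY5Y cells loaded with 2.3 μM Fluo-4 AM for 1 h at 37 °C, then preincubated 1 h at room temperature with test compound (final 1–2500 nM) in low-sodium sucrose buffer, pH 7.4. Antagonism measured against 80 μM BzATP (about EC50) as peak FLIPR calcium fluorescence over 2 min, corrected by no-agonist background.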

IC50, ≤ 2000 nM:
O=C(NCC1(c2ccc(Cl)cc2)CCOCC1)c1cn(-c2ncccn2)nc1C(F)(F)F [Compound 197, N-{[4-(4-chlorophenyl)tetrahydro-2H-pyran-4-yl]methyl}-1-pyrimidin-2-yl-3-(trifluoromethyl)-1H-pyrazole-4-carboxamide]
O=C(NCC1(N2CCOCC2)CCCCC1)c1cn(-c2ncccn2)nc1C(F)(F)F [Compound 198, N-[(1-morpholin-4-ylcyclohexyl)methyl]-1-pyrimidin-2-yl-3-(trifluoromethyl)-1H-pyrazole-4-carboxamide]
COc1ccc(C2(CNC(=O)c3cn(-c4ncccn4)nc3C(F)(F)F)CCCCC2)cc1 [Compound 199, N-{[1-(4-methoxyphenyl)cyclohexyl]methyl}-1-pyrimidin-2-yl-3-(trifluoromethyl)-1H-pyrazole-4-carboxamide]
CC(C)CC(CNC(=O)c1cn(-c2ncccn2)nc1C(F)(F)F)c1ccc(C(F)(F)F)cc1 (stereo not drawn) [Compound 200, N-{4-methyl-2-[4-(trifluoromethyl)phenyl]pentyl}-1-pyrimidin-2-yl-3-(trifluoromethyl)-1H-pyrazole-4-carboxamide]
CCCC(CNC(=O)c1cn(-c2ncccn2)nc1C(F)(F)F)c1ccc(Cl)cc1 (stereo not drawn) [Compound 201, N-[2-(4-chlorophenyl)pentyl]-1-pyrimidin-2-yl-3-(trifluoromethyl)-1H-pyrazole-4-carboxamide]
CC(CNC(=O)c1cn(-c2ncccn2)nc1C(F)(F)F)c1ccc(Cl)cc1 (stereo not drawn) [Compound 202, N-[2-(4-chlorophenyl)propyl]-1-pyrimidin-2-yl-3-(trifluoromethyl)-1H-pyrazole-4-carboxamide]
CC(C)CC(CNC(=O)c1cn(-c2ncccn2)nc1C(F)(F)F)c1cccnc1 (stereo not drawn) [Compound 203, N-(4-methyl-2-pyridin-3-ylpentyl)-1-pyrimidin-2-yl-3-(trifluoromethyl)-1H-pyrazole-4-carboxamide]
O=C(NCC1(c2ccc(Cl)cc2)CCC1)c1cn(-c2ncccn2)nc1C(F)(F)F [Compound 204, N-{[1-(4-chlorophenyl)cyclobutyl]methyl}-1-pyrimidin-2-yl-3-(trifluoromethyl)-1H-pyrazole-4-carboxamide]
O=C(NCC(O)C12CC3CC(CC(C3)C1)C2)c1cn(-c2ncccn2)nc1C(F)(F)F (stereo not drawn) [Compound 205, N-(2-adamantan-1-yl-2-hydroxyethyl)-1-pyrimidin-2-yl-3-(trifluoromethyl)-1H-pyrazole-4-carboxamide]
CC(C)CCNC(=O)c1cn(-c2ncccn2)nc1C(F)(F)F [Compound 206, N-(3-methylbutyl)-1-pyrimidin-2-yl-3-(trifluoromethyl)-1H-pyrazole-4-carboxamide]
CCC(CNC(=O)c1cn(-c2ncccn2)nc1C(F)(F)F)c1ccccc1 (stereo not drawn) [Compound 207, N-(2-phenylbutyl)-1-pyrimidin-2-yl-3-(trifluoromethyl)-1H-pyrazole-4-carboxamide]
CCCCCCCC(CNC(=O)c1cn(-c2ncccn2)nc1C(F)(F)F)c1ccccc1 (stereo not drawn) [Compound 208, N-(2-phenylnonyl)-1-pyrimidin-2-yl-3-(trifluoromethyl)-1H-pyrazole-4-carboxamide]
CC(C)CC(CNC(=O)c1cn(-c2ncccn2)nc1C(F)(F)F)c1ccccc1 (stereo not drawn) [Compound 209, N-(4-methyl-2-phenylpentyl)-1-pyrimidin-2-yl-3-(trifluoromethyl)-1H-pyrazole-4-carboxamide]
O=C(NCC(CC1CCCC1)c1ccccc1)c1cn(-c2ncccn2)nc1C(F)(F)F (stereo not drawn) [Compound 210, N-(3-cyclopentyl-2-phenylpropyl)-1-pyrimidin-2-yl-3-(trifluoromethyl)-1H-pyrazole-4-carboxamide]
O=C(NCC(c1ccccc1)C1CCCCC1)c1cn(-c2ncccn2)nc1C(F)(F)F (stereo not drawn) [Compound 211, N-(2-cyclohexyl-2-phenylethyl)-1-pyrimidin-2-yl-3-(trifluoromethyl)-1H-pyrazole-4-carboxamide]
CCCCCCC(CNC(=O)c1cn(-c2ncccn2)nc1C(F)(F)F)c1ccccc1 (stereo not drawn) [Compound 212, N-(2-phenyloctyl)-1-pyrimidin-2-yl-3-(trifluoromethyl)-1H-pyrazole-4-carboxamide]
O=C(NCC(CC1CCCCC1)c1ccccc1)c1cn(-c2ncccn2)nc1C(F)(F)F (stereo not drawn) [Compound 213, N-(3-cyclohexyl-2-phenypropyl)-1-pyrimidin-2-yl-3-(trifluoromethyl)-1H-pyrazole-4-carboxamide]
O=C(NCC(CCC1CCCCC1)c1ccccc1)c1cn(-c2ncccn2)nc1C(F)(F)F (stereo not drawn) [Compound 214, N-(4-cyclohexyl-2-phenylbutyl)-1-pyrimidin-2-yl-3-(trifluoromethyl)-1H-pyrazole-4-carboxamide]
CC(CCNC(=O)c1cn(-c2ncccn2)nc1C(F)(F)F)c1ccccc1 (stereo not drawn) [Compound 215, N-(3-phenylbutyl)-1-pyrimidin-2-yl-3-(trifluoromethyl)-1H-pyrazole-4-carboxamide]
CC1CC(NC(=O)c2cn(-c3ncccn3)nc2C(F)(F)F)CC(C)(C)C1 (stereo not drawn) [Compound 216, 1-pyrimidin-2-yl-3-(trifluoromethyl)-N-(3,3,5-trimethylcyclohexyl)-1H-pyrazole-4-carboxamide]
O=C(NC1C2CC3CC(C2)CC1C3)c1cn(-c2ncccn2)nc1C(F)(F)F (stereo not drawn) [Compound 217, N-adamantan-2-yl-1-pyrimidin-2-yl-3-(trifluoromethyl)-1H-pyrazole-4-carboxamide]
O=C(NCCc1ccccc1Br)c1cn(-c2ncccn2)nc1C(F)(F)F [Compound 218, N-[2-(2-bromophenyl)ethyl]-1-pyrimidin-2-yl-3-(trifluoromethyl)-1H-pyrazole-4-carboxamide]
CCc1nc(-c2ncccn2)sc1C(=O)NCC1(c2cccnc2)CCCCC1 [Compound 219, 4-ethyl-N-[(1-pyridin-3-ylcyclohexyl)methyl]-2-pyrimidin-2-yl-1,3-thiazole-5-carboxamide]
CCc1nc(-c2ncccn2)sc1C(=O)NCC(CC(C)C)c1ccc(C(F)(F)F)cc1 (stereo not drawn) [Compound 220, 4-ethyl-N-{4-methyl-2-[4-(trifluoromethyl)phenyl]pentyl}-2-pyrimidin-2-yl-1,3-thiazole-5-carboxamide]
CCc1nc(-c2ncccn2)sc1C(=O)NCc1ccc(F)cc1Cl [Compound 231, N-(2-chloro-4-fluorobenzyl)-4-ethyl-2-pyrimidin-2-yl-1,3-thiazole-5-carboxamide]
CCc1nc(-c2ncccn2)sc1C(=O)NC1CC(C)CC(C)(C)C1 (stereo not drawn) [Compound 236, 4-ethyl-2-pyrimidin-2-yl-N-(3,3,5-trimethylcyclohexyl)-1,3-thiazole-5-carboxamide]
CCc1nc(-c2ncccn2)sc1C(=O)NCC12CC3CC(CC(C3)C1)C2 [Compound 247, N-(adamantan-1-ylmethyl)-4-ethyl-2-pyrimidin-2-yl-1,3-thiazole-5-carboxamide]
CCc1nc(-c2ncccn2)sc1C(=O)NC[C@@H]1CCC2CC1C2(C)C (stereo partly drawn) [Compound 248, N-{[(2R)-6,6-dimethylbicyclo[3.1.1]hept-2-yl]methyl}-4-ethyl-2-pyrimidin-2-yl-1,3-thiazole-5-carboxamide]
CCc1nc(-c2ncccn2)sc1C(=O)NCC(CC(C)C)c1ccc(Cl)cc1 (stereo not drawn) [Compound 249, N-[2-(4-chlorophenyl)-4-methylpentyl]-4-ethyl-2-pyrimidin-2-yl-1,3-thiazole-5-carboxamide]
CCc1nc(-c2ncccn2)sc1C(=O)NCC1(c2ccc(OC)cc2)CCCCC1 [Compound 250, 4-ethyl-N-{[1-(4-methoxyphenyl)cyclohexyl]methyl)-2-pyrimidin-2-yl-1,3-thiazole-5-carboxamide]
CCc1nc(-c2ncccn2)sc1C(=O)NCC(CC(C)C)c1ccccc1 (stereo not drawn) [Compound 258, 4-ethyl-N-(4-methyl-2-phenylpentyl)-2-pyrimidin-2-yl-1,3-thiazole-5-carboxamide]
CCc1nc(-c2ncccn2)sc1C(=O)NCC1(c2ccc(OC)cc2)CCCC1 [Compound 269, 4-ethyl-N-{[1-(4-methoxyphenyl)cyclopentyl]methyl}-2-pyrimidin-2-yl-1,3-thiazole-5-carboxamide]
CCc1nc(-c2ncccn2)sc1C(=O)NCC(CC(C)C)c1ccc(C)cc1 (stereo not drawn) [Compound 275, 4-ethyl-N-[4-methyl-2-(4-methylphenyl)pentyl]-2-pyrimidin-2-yl-1,3-thiazole-5-carboxamide]
